Results on 2 compounds are retold here after patent US8372808B2, “Suppression of glial fibrillary acidic protein” (Wisconsin Alumni Research Foundation, priority 2008, dated 2013).

Where two headings read alike, the source gives them in different places. A value given as a limit tells only on which side of the number the result lay.

For series [1], the system named is 172.9 cells. The series can be described thus: cell viability (CellTiter-Glo) / MTDcc in 172.9 cells. The method, then:
Criterion for acceptable viability was >70% survival.
Cell viability was determined as follows. After exposure to each compound (duplicate wells per compound), 50 μl of CellTitier-Glo Luminescent Cell Viability Assay reagent (G7571, Promega) was added to the 100 μl of media present in each well, and the luminescent signal (reflecting intracellular ATP level) was detected with either a Victor 3-V plate reader (Perkin Elmer) or GloRunner Microplate Luminometer (Turner Biosystems). Cell viability was expressed as a percent of non-treated control cells.
A dose-response curve was created for each compound (0.1, 0.5, 1, 5, 10, 15, 20 μM) using 48 hr exposures. The MTDcc (“maximum tolerated dose—cell culture”) indicates the highest concentration that retained at least 70% cell viability. Each compound and concentration was analyzed in quadruplicate wells. EGCDG: epigallocatechin 3,5-digallate; NPPB: 5-nitro-2-phenylproplyaminobenzoic acid. As used herein, MTDcc refers to the MTD as determined by this assay under the above conditions.

Series [2] deals with mGFAP protein. The series can be described thus: cell-based GFAP protein level assay (cell-based ELISA) in 172.9 cells. Further details: species or system mouse. Conditions: for % GFAP reductions, mGFAP protein via ELISA: tertiary screen, 48 hr exposure, at the MTDcc. A general note: An ELISA detects its analyte on a solid surface through an enzyme-linked reagent.
The subject of series [3] is 2.2 kb human GFAP promoter. The series can be described thus: hGFAP promoter luciferase activity assay in 172.9 cells (primary astrocytes from dual luciferase transgenic mice). The format is cell-based. Conditions: for reductions in luciferase activity: quaternary screen, 10 days of exposure, 0-20 μM; for % GFAP reductions, luciferace expression from hGFAP promoter: tertiary screen, 48 hr exposure, at the MTDcc. The method, then:
Cell-based assays were performed as four different screens using enriched cortical primary astrocyte cultures developed from transgenic mice expressing both firefly and Renilla luciferase reporter genes were generated. Briefly, the'firefly luciferase was placed under the control of a 2.2 kb human GFAP promoter to monitor GFAP transcription, and the Renilla luciferase was placed under the control of a 0.5 kb human GAPDH (glyceraldehyde 3-phosphate dehydrogenase) promoter to monitor transcription of a housekeeping gene for signal normalization. See section B, below for more detail regarding the development of transgenic mouse strains. Cells used in the following examples (e.g., the cortical primary astrocyte cells termed “172.9 cells,” described below) were developed from the transgenic mice described in section B.
Briefly, the cortices from individual pups were freed of meninges and placed into DMEM (Gibco) without serum, mechanically disassociated into single cells, suspended in medium containing DMEM supplemented with 10% fetal bovine serum (FBS; Hyclone), 100 U/ml penicillin, 100 μg/ml streptomycin (Gibco), seeded into T25 flasks (one brain per flask), and maintained in a humidified 5% CO2 atmosphere at 37° C. […] Medium was changed every 3 days. At 14-16 days in vitro (DIV), the flasks were shaken overnight at 200 rpm to remove oligodendrocytes and microglia. […] The cells were then suspended in DMEM with 10% FBS and plated (“passage 2”) on either 35 mm dishes, […], or 96-well plates (Corning) as needed. Cells were grown for varying days in vitro (DIV) at passage 2 and then used for various experiments. Tissue culture dishes and plates were pre-coated with 100 μg/ml poly-L-lysine for 1 h in a humidified 5% CO2 atmosphere at 37° C., and then allowed to air dry. […] Cell density was measured with the Vi-CELL cell counter (Beckman Coulter) or hemocytometer by the trypan-blue exclusion method. For simplicity, cells are referred to as “172.9 cells.”
Briefly, 172.9 cells were plated on poly-L coated white 96-well plates at a density of 5000 cells per well, in 100 μl DMEM with 10% FBS. At twenty-four hours, cells were exposed to the different compounds at a final concentration of 10 μM (diluted from a 50 mM stock) prepared in new medium (DMEM with 10% FBS). […] After exposure to compounds, luciferase activity in the primary and secondary screenings was determined by adding 30 μl of Bright-Glo™ reagent (Promega) to the 100 μl of media and cells of each well in the white 96-well plates with the Biomek® FX liquid handler (Beckman Coulter). After incubation for 1 minute at room temperature, signals were measured with the Safire 2 plate reader using Magellan™ software (Tecan). Other specific methods and equipment are known in the art and can be used to measure luciferase expression levels. This assay method is termed the “hGFAP promoter luciferase activity assay.” A reduction in luciferase expression as determined by this assay is termed “hGFAP promoter luciferase reduction.” For some assays that were aimed at confirming results of the initial screens, the same amount of Bright-Glo™ reagent was applied to each well in 96-well plates and signals were detected with the GloRunner™ Microplate Luminometer (Turner Biosystems) using the Dual-Glo® luciferase assay according to the manufacturer's recommendations (E1910, Promega).
In the secondary screen, cells were plated in a 96-well plate as described above for the primary screen.
Some compounds were unavailable outside of the library collections, and could not be further tested.
Each compound and concentration was analyzed in quadruplicate wells.
(§1) Compounds were tested at eight different concentrations ranging from 0-20 μM. In addition, GFAP protein levels were measured using a sandwich ELISA, which has greater sensitivity and is more accurate than the cell-based ELISA used in the primary screens.

The test system of series [4] is GFAP protein. The series can be described thus: sandwich ELISA for GFAP protein in 172.9 cells, quaternary screen. The settings on record: 10 days of exposure, 0-20 μM. The class given is cell-based, mouse. The method, then:
as §1
The extracts were harvested from each well and the total GFAP content of each well was measured by a sandwich ELISA as described below. Briefly, separate microtiter plates were coated with SMI-26 anti-GFAP mouse monoclonal antibody cocktail (1:1000, Covance, diluted in PBS) overnight at 4° C., rinsed 3 times in PBS, and then blocked with Blotto (5% nonfat milk/PBS) for 2 h at RT. Samples from the astrocyte cell lysate (20 μl per well) were loaded onto the plates and brought up to 100 μl with 0.5% Triton X-100/PBS (a buffer used for subsequent antibody incubations and rinses), and incubated with a rabbit polyclonal anti-GFAP antibody (1:5000, DAKO) overnight at 4° C. The plates were rinsed three times and then incubated with HRP-conjugated goat anti-rabbit IgG (1:30,000, Sigma) for 2 h at RT. After three final rinses, peroxidase activity was detected using the Super Signal Femto maximum Sensitivity Substrate (Pierce) with a GloRunner microplate luminometer (Turner Biosystems). The GFAP content in the samples was determined from a standard curve generated using serial dilutions of purified GFAP (Research Diagnostics).

The mark [5] stands for this setting: secondary screen, 10 μM, 48 hours.

Take `O=C(Oc1cc(O)cc2c1C[C@@H](OC(=O)c1cc(O)c(O)c(O)c1)[C@@H](c1cc(O)c(O)c(O)c1)O2)c1cc(O)c(O)c(O)c1` [EGCDG, epigallocatechin 3,5-digallate]: in series [1], the MTDcc amounted to 17.5 µM and the cell viability result is on record as “acceptable cell viability”. In series [2] (setting [5]), the “suppression in the protein assay” value was “significant suppression”. Besides, the “% GFAP reductions, mGFAP protein via ELISA” value in series [2] is given as 4.5%. Moreover, in series [3], the “reductions in luciferase activity” value is “consistent reductions” and the “% GFAP reductions, luciferace expression from hGFAP promoter” value stood at 57%. Besides, in series [3] (setting [5]), the “suppression in the promoter assay” value is reported as “significant suppression”. Moreover, the “reductions in GFAP protein levels” value in series [4] is given as “consistent reductions”.

Regarding `CN(C)CCC=C1c2ccccc2CCc2ccccc21` [amitriptyline], in series [1], the cell viability entry is given as “acceptable cell viability”. Also, the MTDcc in series [1] (mouse, 48 h) is more than 20 µM. The “% GFAP reductions, mGFAP protein via ELISA” value in series [2] turned out to be 12.2%. Further, in series [3], the “reductions in luciferase activity” value is “consistent reductions” and the “% GFAP reductions, luciferace expression from hGFAP promoter” value is on record as 63%. The “reductions in GFAP protein levels” value in series [4] is reported as “consistent reductions”.
